Source: PubChem BioAssay (NCI)
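Briefly, cells in 96-well plates were exposed to five compound concentrations for 48 h, and endpoints were estimated by linear interpolation. The concentration for full growth arrest is given as TGI.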 Where a SMILES comes first, the peptide text is derived from it. Bridges are numbered along the chain shown (N, C = ends). [ ]: non-standard residue; d: D form. The star is where a group is joined. Cbz = O=C(OCc1ccccc1)*; Aib = CC(C)(N)C(=O)O; OBn = c1ccc(CO*)cc1; βAla = NCCC(=O)O

Legend:
Assay in all cases: DTP human tumour cell line panel, 48 h
786-0 renal = test system: 786-0 renal
A498 renal = test system: A498 renal
A549 NSCLC = test system: A549 NSCLC
ACHN renal = test system: ACHN renal
CCRF-CEM leukemia = test system: CCRF-CEM leukemia
HCC-2998 colon = test system: HCC-2998 colon
HOP-62 NSCLC = test system: HOP-62 NSCLC
HT29 colon = test system: HT29 colon
IGROV1 ovarian = test system: IGROV1 ovarian
K-562 leukemia = test system: K-562 leukemia
KM12 colon = test system: KM12 colon
LOX IMVI melanoma = test system: LOX IMVI melanoma
MALME-3M melanoma = test system: MALME-3M melanoma
MDA-MB-231 breast = test system: MDA-MB-231 breast
MDA-N = test system: MDA-N
NCI-H522 lung = test system: NCI-H522 lung
TK-10 renal = test system: TK-10 renal
UACC-257 melanoma = test system: UACC-257 melanoma
HL-60(TB) leukemia = test system: HL-60(TB) leukemia

SMILES | TGI (786-0 renal) [µM] | TGI (A498 renal) [µM] | TGI (A549 NSCLC) [µM] | TGI (ACHN renal) [µM] | TGI (CCRF-CEM leukemia) [µM] | TGI (HCC-2998 colon) [µM] | TGI (HOP-62 NSCLC) [µM] | TGI (HT29 colon) [µM] | TGI (IGROV1 ovarian) [µM] | TGI (K-562 leukemia) [µM] | TGI (KM12 colon) [µM] | TGI (LOX IMVI melanoma) [µM] | TGI (MALME-3M melanoma) [µM] | TGI (MDA-MB-231 breast) [µM] | TGI (MDA-N) [µM] | TGI (NCI-H522 lung) [µM] | TGI (TK-10 renal) [µM] | TGI (UACC-257 melanoma) [µM] | TGI (HL-60(TB) leukemia) [µM]
COc1ccc2c(c1)OCc1c-2oc2ccccc2c1=O | > 100 | > 100 | > 100 | > 100 | > 100 | > 100 | > 100 | > 100 | > 100 | > 100 | > 100 | > 100 | > 100 | > 100 | > 100 | > 100 | > 100 | > 100 | –
O=C(CC(=O)N(C(=O)c1ccccc1)c1ccc(Cl)cc1)N/N=C\c1cc(N=Nc2ccccc2Cl)ccc1O | > 100 | 85.6 | > 100 | > 100 | 51.4 | > 100 | > 100 | > 100 | > 100 | 36 | > 100 | > 100 | > 100 | > 100 | > 100 | – | > 100 | – | 26.2
O=C1C(Br)=CC2(C=C1Br)CCN=c1c(O)c3c(c(O)c12)=NC=N3 | 30 | 33.2 | 37.9 | 27.7 | 48.9 | 46.3 | 31.1 | 29.2 | – | 41.1 | 30.9 | 27.1 | – | 29.4 | 3.34 | 28.1 | 59 | 28 | 35
CCOC(=O)C(=C(SC)SC)c1nn2c(=O)cc(C)nc2s1 | 36.2 | – | > 100 | 33.7 | 68.6 | 34.9 | > 100 | 35.8 | 47.5 | 44.1 | 89.7 | 29.5 | 32.3 | 47.8 | 30.6 | 41.7 | 44.9 | 45.2 | 37.6
S=C(/N=c1/sc(Nc2ccccc2)nc2sc3c(c12)CCCC3)Nc1ccccc1 | > 62.5 | > 62.5 | – | > 62.5 | > 62.5 | > 62.5 | > 62.5 | > 62.5 | > 62.5 | > 62.5 | > 62.5 | > 62.5 | > 62.5 | > 62.5 | > 62.5 | > 62.5 | > 62.5 | > 62.5 | > 62.5
c1ccc2c(c1)nc1n2CNCC1 | > 100 | > 100 | > 100 | > 100 | – | > 100 | > 100 | > 100 | > 100 | – | > 100 | 73.3 | > 100 | > 100 | > 100 | > 100 | > 100 | > 100 | > 100
O=P(O)(O)CN1CCN(CP(=O)(O)O)CCN(CP(=O)(O)O)CCN(CP(=O)(O)O)CC1 | > 100 | > 100 | > 100 | > 100 | > 100 | > 100 | > 100 | > 100 | > 100 | > 100 | > 100 | > 100 | – | > 100 | > 100 | > 100 | > 100 | > 100 | 72.4
CC(=O)O[C@@H]1C=C(C)[C@H](CBr)O[C@@]2(C)CC[C@H](Br)C(C)(C)[C@H]12 | > 100 | > 100 | > 100 | > 100 | > 100 | > 100 | > 100 | > 100 | > 100 | > 100 | > 100 | > 100 | – | > 100 | > 100 | 90.2 | > 100 | > 100 | > 100
CCCN=C(NC(=O)c1ccc(Cl)cc1)SC | > 100 | 99.8 | > 100 | > 100 | > 100 | > 100 | > 100 | > 100 | > 100 | > 100 | > 100 | > 100 | > 100 | > 100 | > 100 | > 100 | – | > 100 | > 100
COC1(OC)C2(Cl)CCC1(Cl)C(OC(C)=O)C2 (centres undefined) | > 100 | > 100 | > 100 | > 100 | > 100 | > 100 | > 100 | > 100 | > 100 | > 100 | > 100 | > 100 | > 100 | > 100 | > 100 | > 100 | > 100 | > 100 | –
O=C1NNC(=O)C2C3c4ccccc4C(c4ccccc43)C12 (centres undefined) | > 100 | > 100 | > 100 | > 100 | > 100 | > 100 | > 100 | > 100 | > 100 | > 100 | > 100 | > 100 | > 100 | > 100 | > 100 | – | > 100 | > 100 | > 100
CC1CN=C(Nc2ccc(S(N)(=O)=O)cc2)S1 (centres undefined) | > 100 | > 100 | > 100 | > 100 | > 100 | > 100 | > 100 | > 100 | > 100 | > 100 | > 100 | > 10 | > 100 | > 100 | > 10 | – | > 100 | > 100 | > 100
Cc1nc(N)c(N2CCNCC2)c(=O)[nH]1 | > 100 | > 100 | > 100 | > 100 | > 100 | > 100 | > 100 | > 100 | – | > 100 | > 100 | > 100 | > 100 | > 100 | > 100 | > 100 | > 100 | > 100 | > 100
CSc1nc(Cl)c2c(n1)Sc1nc3cc4c(cc3n1C2O)OCO4 (centres undefined) | > 39 | 40.4 | > 47.9 | > 100 | > 100 | > 60.9 | 16.7 | 7.55 | > 72.2 | > 100 | > 100 | 0.746 | 63.9 | > 83.3 | 36.1 | 0.639 | > 100 | > 100 | –
COc1ccccc1N1C(=O)/C(=C\c2cccc(Oc3ccccc3)c2)SC1c1ccccc1 (centres undefined) | > 100 | > 100 | > 100 | > 100 | – | > 100 | > 100 | > 100 | > 100 | > 100 | > 100 | > 100 | > 100 | > 100 | 64.6 | > 100 | > 100 | > 100 | 39.4
O=C(CC(=O)n1nc(-c2ccccc2)c(N=Nc2ccc(Cl)cc2)c1-c1ccccc1)Nc1cccc(Cl)c1 | > 100 | > 100 | > 100 | > 100 | > 100 | > 100 | > 100 | > 100 | > 100 | > 100 | > 100 | – | > 100 | > 100 | > 100 | – | > 100 | > 100 | > 100
CC1=C2C3=C(C)C(=O)C(C)(C)CC[C@@]3(C)[C@]2(C)CCC(C)(C)C1=O | > 100 | > 100 | > 100 | > 100 | > 100 | – | > 100 | > 100 | > 100 | > 100 | > 100 | > 100 | > 100 | > 100 | > 100 | > 100 | > 100 | > 100 | > 100
NS(=O)(=O)c1nnc(NC(=O)c2ccccc2)s1 | > 100 | > 100 | > 100 | > 100 | – | > 100 | > 100 | – | – | > 100 | > 100 | > 100 | > 100 | > 100 | > 100 | > 100 | > 100 | > 100 | –
CCN(CC)Cc1cc(Nc2ccnc3ccc4c(nnn4C)c23)ccc1O | 20.8 | – | 27 | 8.38 | 35.7 | 10.7 | 19 | > 100 | 80.3 | 33 | 39.7 | 29.9 | 42.1 | 44.6 | 27 | 86 | 76 | 28.8 | 50.6
CC1(C)NC(=O)C(NC(=O)C(CC(=O)OCc2ccccc2)NC(=O)OCc2ccccc2)CCCCNC(=O)CCNC1=O (centres undefined) (Cbz-D(OBn)K[Aib][βAla]; lactam 2-C; configuration not given here) | > 100 | > 100 | > 100 | > 100 | – | > 100 | > 100 | > 100 | > 100 | > 100 | > 100 | > 100 | > 100 | > 100 | > 100 | > 100 | > 100 | – | > 100
CNC(=O)N1CCN(C(=O)NC)CCN(C(=O)NC)CC1 | > 100 | > 100 | > 100 | > 100 | > 100 | > 100 | > 100 | > 100 | > 100 | > 100 | – | > 100 | > 100 | > 100 | > 100 | > 100 | > 100 | > 100 | > 100
Clc1ccc2c(NCCCCN=Cc3ccccc3)ccnc2c1 | 22.2 | 7.26 | 31.3 | 49 | > 100 | 27.8 | 23.7 | 21.6 | 36.5 | > 100 | 20.8 | > 100 | 27.5 | 29 | 23.9 | 24.5 | 64 | 26 | –
O=C1SCC(O)=C1/C=N/Nc1nc2ccccc2o1 | > 100 | > 100 | 95.4 | > 100 | 48.8 | > 100 | > 100 | 83.7 | – | – | > 100 | > 100 | > 100 | > 100 | > 100 | – | 92.8 | 72.5 | 24.7
Cc1c(Cc2ccccc2)n(COCCCO)c(=O)[nH]c1=O | > 100 | > 100 | > 100 | > 100 | > 100 | > 100 | > 100 | > 100 | > 100 | > 100 | > 100 | > 100 | > 100 | > 100 | > 100 | > 100 | > 100 | > 100 | –
Clc1cccc(Cl)c1C1SCC2=Nc3ccccc3CN21 (centres undefined) | 32.4 | > 100 | 56.5 | – | > 100 | > 100 | 48.9 | – | 62.5 | > 100 | 48.1 | 41.1 | – | > 100 | > 100 | – | > 100 | > 100 | > 100
CCOC(=O)NC(Nc1ccc(S(=O)(=O)Nc2ncccn2)cc1)(C(=O)OCC)C(F)(F)F (centres undefined) | > 100 | – | > 100 | > 100 | > 100 | > 100 | > 100 | > 100 | > 100 | > 100 | > 100 | > 100 | > 100 | > 100 | > 100 | > 100 | – | > 100 | > 100
